In patent US20240058332A1, “CRAC CHANNEL INHIBITOR COMPOSITIONS” (CalciMedica, Inc., priority 2017, published 2024):
In brackets after ≈: the same amount, converted by molar mass.

Assays:
Type in all cases: physicochemical
[1] = Solubility of Compound A in F57, Method 4: bottom-up method; conditions: 2-8° C.; for concentration in F57 vehicle: Method 4 bottom-up
Procedure: (§1) For solubility determination, a F57 sample (usually about 0.5 mL) was filtered through a 0.22 μm centrifuge filter (Costar Spin-X®+, P/N8169), the filtrate (free of any solid particle) was collected, diluted with isopropanol, and tested for Compound A concentration using the following HPLC method. Dissolution-precipitation equilibrium is reached once the measured filtrate concentration is constant, and that concentration can be regarded as the solubility.
(§2) The bottom-up method used a gentle mixing to slowly dissolve Compound A (Form A) in the F57 vehicle to reach the dissolution-precipitation equilibrium in F57. The solubility of Compound A in the F57 vehicle was then determined. • Top-down method: Add form A and B API, each into a separate tube containing the F57 vehicle, then apply extensive energy to each tube by homogenizer (BB, 600 sec) to obtain a clear solution, and store each tube at 2-8° C. • Bottom-up method: Add form A and B API, each into a separate tube containing the F57 vehicle, then gently shake each tube on a platform shaker at 2-8° C. • Pull sample aliquots at 1 day, 2 days, 1 week and 4 weeks to test for appearance and concentration.

[2] = as above; conditions: for concentration in F57 vehicle: Method 4 bottom-up
[3] = Solubility of Compound A in F57, Method 4: top-down method; conditions: for concentration in F57 vehicle: Method 4 top-down, 2-8° C.; for strength dissolved into F57 vehicle: top-down approach; for concentration on storage: top-down, after 4 weeks' storage at 2-8° C.
Procedure: as §1
The top-down method used high-energy homogenization to dissolve a set amount of Compound A (Form A) in the F57 vehicle to achieve supersaturation, allowing precipitation to take place over time to reach a dissolution-precipitation equilibrium in F57. The solubility of Compound A in the F57 vehicle was then determined.
as §2

[4] = Solubility of Compound A in F57, summary of all 7 methods
Excerpt: The term “solubility” used herein is defined as Compound A concentration where Compound A has reached a dissolution-precipitation equilibrium in F57 at a selected temperature. […] On the other hand, if Compound A concentration is higher than the solubility, Compound A is expected to precipitate over time.
(§3) To investigate the causes of precipitation and determine the Compound A solubility in F57 vehicle, the following seven (7) methods were applied to accurately determine solubility of Compound A in F57: • Method 1: Formulate Compound A in F57 at varied concentrations using GMP grade of Compound A and excipients with the regular process • Method 2: Formulate Compound A in F57 by introducing Compound A into a pre-formed F57 vehicle • Method 3: Observe Compound A in the previously made batches which already had extended incubation • Method 4: Conduct “top-down” and a “bottom-up” solubility studies in F57 vehicle • Method 5: Agitate Compound A GMP batch of F57 to promote the dissolution-precipitation equilibrium • Method 6: Add extra Form B seeds to Compound A GMP batch of F57 to promote Compound A crystal growth and precipitation • Method 7: Add Form B seeds to the samples made in method 1 to promote Compound A crystal growth and precipitation
as §1
Table 40 summarizes the general conditions used in the seven methods to promote the dissolution-precipitation equilibrium. Detailed procedures are described in each method section.
The general observation and findings by all 7 methods are summarized in the table 50, according to the detailed observation and discussion pertaining to each method.

[5] = Solubility estimation of freebase Form A in 20 solvents at RT
Procedure: The solubility of N-(5-(6-chloro-2,2-difluorobenzo[d][1,3]dioxol-5-yl)pyrazin-2-yl)-2-fluoro-6-methylbenzamide freebase Form A was determined in 20 solvents at RT. These experiments were conducted by adding approximately 2 mg of sample into a 3-mL glass vial. Solvents in Table 14 were then added in 50 μL increments into the vials until the solids were dissolved or a total volume of 2 mL was reached. The solubility estimation was used to guide the solvent selection in polymorph screening. N-(5-(6-chloro-2,2-difluorobenzo[d][1,3]dioxol-5-yl)pyrazin-2-yl)-2-fluoro-6-methylbenzamide freebase Form A is soluble in MeOH, Acetic acid, Acetonitrile, Acetone, MIBK, EtOAc, IPAc, MTBE, THF, 2-MeTHF, 1,4-Dioxane, NMP, DMSO, DCM, Toluene and DMAc (>18.0 mg/mL), while it is insoluble in Heptane and H2O (<1.3 mg/mL).

[6] = DVS isotherm (hygroscopicity) of Form A
Excerpt: The crystal size of Form A is in the range of ˜few μm to about 50 μm.

[7] = Stability of Formulation F-9 (small scale), 2 weeks at 2-8° C. and 25° C.; conditions: F-9 emulsion, after 2 weeks at 2-8° C. and 25° C.
Procedure: Procedures: Compound A (Form A) was added to F-9 vehicle containing MCT/Egg/lecithin/Sucrose/EDTA in a plastic tube. The formulation was mixed until uniform and complete drug dissolution. The emulsion was sterilized through 0.2 μm membrane filter. The samples were placed at 2-8° C. and 25° C. for stability evaluation for 2 weeks. The samples were tested for appearance, pH, Compound A assay and purity by HPLC, mean droplet size and globule size distribution in lipid injectable emulsions (USP<729>) and the results are shown in Table 17.

[8] = Emulsion stability 1 week at 40° C. (appearance, assay, Z-Ave, PFAT5); conditions: emulsions at 2-8° C. and after 8 days at 40° C.
Procedure: Procedure: • Prepared all vehicles by mixing lipid and aqueous phase ingredients and homogenized. • Added Compound A (Form A) at 0.3% concentration in each vehicle. • Homogenized and mixed overnight until uniform or achieved equilibrium. • Filtered emulsion through 0.45 μm Nylon membrane filter. • Evaluated appearance, drug concentration by HPLC assay, average droplet size and PFAT5. • Selected the top 5-10 formulations achieving acceptance criteria initially. • Placed at 40° C. for up to 2 weeks to monitor emulsion stability. • Selected the top 3-5 formulations meeting the proposed requirements after 1-2 weeks at 40° C.
Methods: • Appearance: Record visual observation • Z-ave (nm): Measure mean oil droplet size by ZetaSizer (Malvern Instrument). Dilute 50 μL sample with 950 μL DI water at room temperature • Assay (%): Use the current HPLC method • Spin-X: Pass 0.5 mL emulsion through CoStar® Spin-X 0.2 μm Nylon filter (0.7 cm^2 surface area) at 3,144 G-force centrifuge for 60 sec at ambient room temperature. Evaluate completeness of emulsion passing through the filter.

[9] = Solubility of Compound A in F57, Method 6: Form B seeds added to GMP batch; conditions: F57 emulsion (GMP batch), 2 °C, thermodynamic from solid; 2-8° C.; read-out: API solubility in F57
Excerpt: as §3
For solubility determination, a F57 sample (usually about 0.5 mL) was filtered through a 0.22 μm centrifuge filter (Costar Spin-X®+, P/N8169), the filtrate (free of any solid particle) was collected, diluted with isopropanol, and tested for Compound A concentration using the following HPLC method. […]

[10] = Initial formulations: Compound A saturation assay (HPLC) and appearance in template emulsion vehicles; conditions: emulsion composition containing ≥10% egg lecithin, aqueous with cosolvent or surfactant or cyclodextrin, thermodynamic from solid
Procedure: Ten compositions were prepared using various template compositions, containing lecithin, soybean oil (SBO) or medium chain triglycerides (MCT), glycerin or sucrose (non-ionic tonicity agent), edetate disodium di-hydrate (EDTA, chelating agent) in deionized water. Compound A (Form A) was added and agitated to reach solubility equilibrium at ambient room temperature. Each formulation was prepared in the following steps: Compound A (5 mg) was dispersed in each template vehicle. The formulation were then homogenized and at room temperature for >24 h and then passed sample through 0.45 μm filter for analysis (HPLC).

Cc1cccc(F)c1C(=O)Nc1cnc(-c2cc3c(cc2Cl)OC(F)(F)O3)cn1 [Form B, N-(5-(6-chloro-2,2-difluorobenzo[d][1,3]dioxol-5-yl)pyrazin-2-yl)-2-fluoro-6-methylbenzamide]
concentration in F57 vehicle ([1]; 1 wk): 1630 µg/mL | concentration in F57 vehicle ([1]; 4 wk): 1660 µg/mL | concentration in F57 vehicle ([1]; 1 day): 750 µg/mL | concentration in F57 vehicle ([1]; 2 day): 1140 µg/mL | concentration in F57 vehicle ([2]; 2-8° C., 7 wk): 1800 µg/mL | concentration in F57 vehicle ([2]; 25° C., 1 wk): 2150 µg/mL | concentration in F57 vehicle ([2]; 25° C., 4 wk): 2040 µg/mL | concentration in F57 vehicle ([2]; 25° C., 1 day): 1300 µg/mL | concentration in F57 vehicle ([2]; 25° C., 2 day): 1730 µg/mL | solubility ([2]; bottom-up, F57 vehicle, 2-8° C., in 7 weeks): 1800 µg/mL (≈ 4.27 mM) | concentration in F57 vehicle ([3]; 1 wk): 2970 µg/mL | concentration in F57 vehicle ([3]; 4 wk): 2970 µg/mL | concentration in F57 vehicle ([3]; 1 day): 3000 µg/mL | concentration in F57 vehicle ([3]; 2 day): 2940 µg/mL | strength dissolved into F57 vehicle [3]: 3.00 mg/mL | concentration on storage [3]: remained the same

Cc1cccc(F)c1C(=O)Nc1cnc(-c2cc3c(cc2Cl)OC(F)(F)O3)cn1 [Form A, N-(5-(6-chloro-2,2-difluorobenzo[d][1,3]dioxol-5-yl)pyrazin-2-yl)-2-fluoro-6-methylbenzamide]
solubility ([4]; F57 emulsion, 2 °C, thermodynamic from solid, 2-8° C., all methods, read-out: solubility in F57): 1800 to 1900 µg/mL (≈ 4.27 to 4.5 mM) | concentration in F57 vehicle ([1]; 1 wk): 1700 µg/mL | concentration in F57 vehicle ([1]; 4 wk): 1710 µg/mL | concentration in F57 vehicle ([1]; 1 day): 1200 µg/mL | concentration in F57 vehicle ([1]; 2 day): 1530 µg/mL | dissolution rate ([1]; bottom-up, emulsion vehicle): faster dissolution rate | solubility at 7 weeks ([2]; F57 emulsion vehicle, thermodynamic from solid, bottom-up, F57 vehicle, 2-8° C., in 7 weeks): 1800 µg/mL (≈ 4.27 mM) | concentration in F57 vehicle ([2]; 2-8° C., 7 wk): 1850 µg/mL | concentration in F57 vehicle ([2]; 25° C., 1 wk): 2190 µg/mL | concentration in F57 vehicle ([2]; 25° C., 4 wk): 2170 µg/mL | concentration in F57 vehicle ([2]; 25° C., 1 day): 2180 µg/mL | concentration in F57 vehicle ([2]; 25° C., 2 day): 2240 µg/mL | solubility ([5]; organic solvent or mixture, thermodynamic from solid, 1,4-Dioxane, read-out: Solubility): > 24000 µg/mL | solubility ([5]; organic solvent or mixture, thermodynamic from solid, 2-MeTHF, read-out: Solubility): > 26000 µg/mL | solubility ([5]; organic solvent or mixture, thermodynamic from solid, Acetic acid, read-out: Solubility): > 22000 µg/mL | solubility ([5]; organic solvent or mixture, thermodynamic from solid, Acetone, read-out: Solubility): > 22000 µg/mL | solubility ([5]; organic solvent or mixture, thermodynamic from solid, Acetonitrile, read-out: Solubility): > 22000 µg/mL | solubility ([5]; organic solvent or mixture, thermodynamic from solid, DCM, read-out: Solubility): > 22000 µg/mL | solubility ([5]; organic solvent or mixture, thermodynamic from solid, DMAc, read-out: Solubility): > 22000 µg/mL | solubility ([5]; organic solvent or mixture, thermodynamic from solid, DMSO, read-out: Solubility): > 20000 µg/mL | solubility ([5]; organic solvent or mixture, thermodynamic from solid, EtOAc, read-out: Solubility): > 22000 µg/mL | solubility ([5]; organic solvent or mixture, thermodynamic from solid, Heptane, read-out: Solubility): < 1300 µg/mL | solubility ([5]; organic solvent or mixture, thermodynamic from solid, IPAc, read-out: Solubility): > 24000 µg/mL | solubility ([5]; organic solvent or mixture, thermodynamic from solid, MIBK, read-out: Solubility): > 22000 µg/mL | solubility ([5]; organic solvent or mixture, thermodynamic from solid, MTBE, read-out: Solubility): > 18000 µg/mL | solubility ([5]; organic solvent or mixture, thermodynamic from solid, MeOH, read-out: Solubility): > 18000 µg/mL | solubility ([5]; organic solvent or mixture, thermodynamic from solid, NMP, read-out: Solubility): > 26000 µg/mL | solubility ([5]; organic solvent or mixture, thermodynamic from solid, THF, read-out: Solubility): > 20000 µg/mL | solubility ([5]; organic solvent or mixture, thermodynamic from solid, Toluene, read-out: Solubility): > 22000 µg/mL | solubility ([5]; organic solvent or mixture, thermodynamic from solid, in Heptane and H2O, read-out: solubility (insoluble)): < 1300 µg/mL | solubility ([5]; organic solvent or mixture, thermodynamic from solid, in MeOH, Acetic acid, Acetonitrile, Acetone, MIBK, EtOAc, IPAc, MTBE, THF, 2-MeTHF, 1,4-Dioxane, NMP, DMSO, DCM, Toluene and DMAc, read-out: solubility (soluble)): > 18000 µg/mL | solubility ([5]; water, thermodynamic from solid, H2O, read-out: Solubility): < 1000 µg/mL | concentration in F57 vehicle ([3]; 1 wk): 2680 µg/mL | concentration in F57 vehicle ([3]; 4 wk): 2640 µg/mL | concentration in F57 vehicle ([3]; 1 day): 2690 µg/mL | concentration in F57 vehicle ([3]; 2 day): 2650 µg/mL | strength dissolved into F57 vehicle [3]: 2.69 mg/mL | concentration on storage [3]: remained the same | hygroscopicity ([6]; DVS isotherm plot): not hygroscopic | water uptake level ([6]; DVS isotherm, at 80% RH): < 0.03%

Cc1cccc(F)c1C(=O)Nc1cnc(-c2cc3c(cc2Cl)OC(F)(F)O3)cn1 [Compound A, N-(5-(6-chloro-2,2-difluorobenzo[d][1,3]dioxol-5-yl)pyrazin-2-yl)-2-fluoro-6-methylbenzamide]
solubility ([4]; F57, thermodynamic from solid, in F57, Method 2, Equilibrium reached, read-out: Measured Solubility): 1800 to 1900 µg/mL (≈ 4.27 to 4.5 mM) | solubility ([4]; F57, thermodynamic from solid, in F57, Method 4, Equilibrium reached, read-out: Measured Solubility): 1800 µg/mL (≈ 4.27 mM) | solubility ([4]; F57, thermodynamic from solid, in F57, Method 5, Equilibrium reached, read-out: Measured Solubility): 1800 to 1900 µg/mL (≈ 4.27 to 4.5 mM) | solubility ([4]; F57, thermodynamic from solid, in F57, Method 6, Equilibrium reached, read-out: Measured Solubility): 1800 to 1900 µg/mL (≈ 4.27 to 4.5 mM) | solubility ([4]; F57, thermodynamic from solid, in F57, Method 7, Equilibrium reached, read-out: Measured Solubility): 1800 to 1900 µg/mL (≈ 4.27 to 4.5 mM) | appearance and HPLC assay on stability [7]: remained unchanged | % purity on stability [8]: 99.9% | solubility [9]: 1800 to 1900 µg/mL (≈ 4.27 to 4.5 mM) | solubility [10]: ≥ 2400 µg/mL
